Source: patent publication US20250248999A1, “BAVDEGALUTAMIDE AND COMBINATIONS THEREOF FOR USE IN TREATING PROSTATE CANCER” (Arvinas Operations, Inc., priority 2022, published 2025)
Like-named read-outs stand apart in the source and are kept apart here.

Legend:
clinical = conditions: human, in vivo
[1] = test system: human VCaP (Vertebral-Cancer of the Prostate) tumor xenografts; assay: 3-stage efficacy study in castrated mice bearing VCaP tumor xenografts; conditions: for change in body weight: Stage I treatment period, FIG. 16; for Tumor volume, Day 0 / Tumor volume, Day 43 (Stage I) / Tumor volume, Day 92 (Stage III): mean ± SEM; for Tumor volume, Day 92 (Stage III): abiraterone 100 mg/kg or Compound (I-g) 10 mg/kg once daily for 19 days
[2] = test system: patient-derived xenograft (PDX) model TM00298; conditions: enzalutamide treatment; cited from earlier work
[3] = not given; remark: listed apart in the source
[4] = Phase I dose escalation safety
Source text: A traditional 3+3 dose escalation design was implemented. […] Dose increases were dependent upon toxicities.

[5] = 28-day toxicology study in rats
CYP3A4 = assay: In vitro CYP3A4 induction; conditions: in vitro data
mCRPC tumor = assay: RECIST response by CT scan in mCRPC patient; assay type: in vivo, human; conditions: Patient 20, 140 mg/day, after 4 cycles
[6] = test system: patient-derived xenograft (PDX) model TM00298; assay: Patient-derived xenograft (PDX) model TM00298; assay type: in vivo, NSG (NOD scid IL2Ry) mice; conditions: Compound (I-g) 10 mg/kg/day PO, enzalutamide 20 mg/kg/day PO
Method: The TM00298 PDX was grown in intact (non-castrate) male NSG (NOD scid IL2Ry) mice.

[7] = Stage I, Compound (I-g) 3 mg/kg, abiraterone 100 mg/kg or combination, oral gavage once daily
[8] = Stage III, abiraterone-resistant tumors
[9] = Stage III, abiraterone-resistant tumors, abiraterone 100 mg/kg or Compound (I-g) 10 mg/kg once daily, n = 4

With `C[C@]12CC[C@H](O)CC1=CC[C@@H]1[C@@H]2CC[C@]2(C)C(c3cccnc3)=CC[C@@H]12` [Abiraterone, (3S,8R,9S,10R,13S,14S)-10,13-dimethyl-17-(pyridin-3-yl)-2,3,4,7,8,9,10,11,12,13,14,15-dodecahydro-1H-cyclopenta[a]phenanthren-3-ol, reference compound] the “reduction in the average abiraterone AUC exposure” value (1000 mg abiraterone given with 420 mg Compound (I-g), preliminary) was 22%, the “drug-drug interaction (DDI)” value (abiraterone with Compound (I-g) vs abiraterone alone) was “no significant DDI was observed” and the AUC (clinical; Abiraterone AUC0-tau, mean) was 417 ng·h/mL. For the same compound, the Cmax (clinical; Abiraterone Cmax, mean) was 117 ng/mL, the “change in body weight” value [1] was “no significant change in body weight was observed” and the “TGI (%) vs vehicle (Stage I)” value ([1]; Stage I, Compound (I-g) 3 mg/kg, abiraterone 100 mg/kg or combination, oral gavage once daily, 43 days) was 60%. The “Tumor volume, Day 0” value [1, 7] was 135 ± 10 mm^3, the “Tumor volume, Day 43 (Stage I)” value [1, 7] was 262 ± 39 mm^3 and the “Tumor volume, Day 92 (Stage III)” value [1, 8] was 467 ± 85 mm^3. The “Tumor volume, Day 0” value [1, 9] was 365 ± 44 mm^3.

For `CNC(=O)c1ccc(N2C(=S)N(c3ccc(C#N)c(C(F)(F)F)c3)C(=O)C2(C)C)cc1F` [enzalutamide, reference compound], the “PSA reductions, published report (Jin 2017)” value [2] is listed as “modest PSA reductions were observed” and the “TGI, published report (Jin 2017)” value [2] is listed as “no TGI”.

For `N#Cc1ccc(O[C@H]2CC[C@H](NC(=O)c3ccc(N4CCC(CN5CCN(c6cc7c(cc6F)C(=O)N(C6CCC(=O)NC6=O)C7=O)CC5)CC4)nn3)CC2)cc1Cl` (some centres unmarked) [Compound (I-g)], the gastrointestinal alterations ([3]; dogs, 3, 10, 30 mg/kg oral once daily, 28 days) was “Gastrointestinal alterations were observed at all dose levels (including vehicle alone)”, the prostate weights ([3]; male dogs) was “decreased prostate weights” and the “adverse events at grades 2, 3, or 4” value ([4]; 35 mg/day cohort (n=3)) was “no adverse events at grades 2, 3, or 4 were observed”. For the same compound, the dose limiting toxicity ([4]; 35 mg/day cohort (n=3)) was “no dose limiting toxicity was observed”, the dose limiting toxicity ([4]; 70 mg/day cohort (n=4)) was “no dose limiting toxicity was observed” and the “grade 2 adverse events” value ([4]; 70 mg/day cohort (n=4)) was “One patient experienced grade 2 adverse events (diarrhea, fatigue, vomiting)”. For the same compound, the “grade 3 adverse events” value ([4]; 70 mg/day cohort (n=4)) was “One patient experienced a grade 3 adverse event (anemia) that was unrelated to the administration of compound (I-g)”, the dose limiting toxicity ([4]; 140 mg/day cohort (n=8)) was “no dose limiting toxicity was observed” and the “patients with grade 2 adverse events” value ([4]; 140 mg/day cohort (n=8)) was 50 % of the patients. The dose-limiting toxicity ([4]; 280 mg/day cohort (n=7)) was “one patient experienced dose-limiting toxicity and renal failure”, the “patients with grade 2 or less adverse events” value ([4]; 280 mg/day cohort (n=7)) was 5 patients and the “body weight and food consumption” value ([5]; 80 mg/kg female rat cohort) was “lost body weight and consumed less food”. For the same compound, the “reversibility of findings (liver hypertrophy, femur physis thickening)” value ([5]; male high-dose rats, 14-day recovery) was “fully reversible”, the prostate weights ([5]; male rats) was “decreased prostate weights” and the tolerability ([5]; rats, oral once daily 28 days, males 20, 60, 120 mg/kg, females 20, 40, 120 mg/kg) was “well tolerated at all doses, with the exception of the 80 mg/kg female cohort”. For the same compound, the CYP3A4 induction (CYP3A4) was “induces CYP3A4”, the AUC (clinical) was 9120 ng·h/mL and the AUC(0-t) (clinical) was 3030 ng·h/mL. For the same compound, the Cmax (clinical) was 451 ng/mL, the Tmax (clinical) was 6 h and the “change in body weight” value [1] was “no significant change in body weight was observed”. For the same compound, the “Tumor volume, Day 0” value [1, 7] was 147 ± 8{grave over ( )} mm^3, the “Tumor volume, Day 43 (Stage I)” value [1, 7] was 231 ± 26 mm^3 and the “TGI (%) vs Abiraterone (Stage III)” value ([1]; Stage III, abiraterone-resistant tumors, Compound (I-g) 10 mg/kg once daily for 19 days) was “growth inhibition was observed”. For the same compound, the “Tumor volume, Day 92 (Stage III)” value [1, 8] was 305 ± 23 mm^3, the “Tumor volume, Day 0” value [1, 9] was 330 ± 15 mm^3 and the “tumor response on CT scan” value (mCRPC tumor) was “RECIST response”. For the same compound, the “reduction of plasma PSA” value ([6]; vs vehicle) was 93% and the TGI ([6]; after 20 days, intact male NSG mice) was 100%.
